Patent publication US20250268980A1, “AN ANTICANCER THERAPY TARGETING RAS AND OTHER ONCOGENIC SIGNALS BY INHIBITION OF DYNAMIC BLEBBING AND/OR SEPTINS” (THE BOARD OF REGENTS OF THE UNIVERSITY OF TEXAS SYSTEM, priority 2022, published 2025)

What was measured:
MEF cells = test: Caspase activity assay (CellEvent Caspase-3/7) in MEF cells expressing DYN2 (K44A); format: cell-based, mouse; details: 10 μg/mL WGA or 50 μM FCF; for anoikis resistance acquired by DYN2 (K44A) expression: MEF DYN2 (K44A); for caspase activation: detached MEF DYN2 (K44A), 4 hours
Excerpt: Inhibitors. Wheat Germ Agglutinin (WGA) was purchased from Sigma (product #L9640). Forchlorfenuron (FCF) was purchased from Sigma (product #C2791). VitroGel and VitroGel-RGD were purchased from TheWell Bioscience (sku #s TWG001 and TWG002). H1152 was purchased from Tocris (catalogue #2414). NSC6683394 was purchased from Sigma (product #341216). Dabrafenib (GSK2118436), and Trametinib (GSK1120212) were purchased from Selleckchem. Transient expression of dominant negative Dyn2 (K44A) 66,67 was achieved through adenovirus transduction68 as previously described69 with cells analyzed 16-18 hours after transduction.
(§1) Detached/Adhered Cell Culture. […] Drug treatments, solvent-only controls, or CellEvent caspase activity sensor were added to suspensions if appropriate to the experiment, and then immediately transferred to both an uncoated (for detached cells) and ibiTreated (for adhered cells) 8-well ibidi u-slide (ibidi cat #80821 and 80826) at 200 μl/well. Both slides were stored at 37° C. and 5% CO2 for either 24 hours (hrs) for viability assays, 3 hrs for ERK activity assays or 4 hours for caspase activation assays. Uncoated slides (detached) were nutated at 20 rpm during this time. […] For experiments using MAPKi A375 cells, Dabrafenib and Trametinib treatment was continued over the course of the experiment.
Viability, ERK Activity, and Caspase ActivityCell Counting Assays. Viability, ERK activity, and caspase activity assays were analyzed using live-cell fluorescent and phase-contrast microscopy, performed on a Nikon Ti microscope equipped with an environmental chamber held at 37° C. and 5% CO2 at 20× magnification. For viability assays, cells were stained with ethidium homodimer-1 (Invitrogen cat #E1169) at 4 µM and Hoechst (ThermoFisher cat #H3570) at 10 μg/ml for 15 minutes before imaging. Live and dead cells (as identified by significant cellular ethidium signal) were counted using the Cell Counter ImageJ plugin. For ERK activity assays, live cells carrying ERK-nKTR-GFP and H2B-mCherry were imaged after 3 hours of experimental conditions and high/low ERK activity cells were counted with Cell Counter ImageJ plugin. Cells in which nuclear GFP signals were by eye higher than cytoplasmic signal (“brighter” nucleus visible within “darker” cytoplasm) were labelled ERK low, while cytoplasmic signals equal to or higher than nuclear signal (nucleus indistinguishable from cytoplasm or “darker” nucleus within “brighter” cytoplasm) were labelled ERK high. To control for unconscious bias in making this determination, the identity of all ERK experimental groups were blinded from the analyst. […] Caspase positive and negative cells (as identified by significant cellular CellEvent signal) were counted using the Cell Counter ImageJ plugin.

M498 cells = test: Detached/adhered viability assay, ethidium homodimer staining, M498; format: cell-based, human; details: for cell death: 24 hours of WGA
Description: (§2) Bleb formation was inhibited using wheat germ agglutinin (WGA), a lectin that reduces plasma membrane deformability by crosslinking components of the glycocalyx. […] To investigate putative bleb function as a driver of anchorage-independent cell survival assays were designed that consistently minimized both cell-substrate and cell-cell attachment over a period of 24 hours. This was accomplished by seeding cells at very low density (approx. 250 or 100 cells/ml) in non-adherent culture dishes under constant gentle agitation. For controls, cells were grown at identical concentrations in adherent variants of the same culture dishes. Together, this generated pairs of ‘detached’ and ‘adhered’ cell populations in paired same-day experiments.
Detached/Adhered Cell Culture. […] Drug treatments, solvent-only controls, or CellEvent caspase activity sensor were added to suspensions if appropriate to the experiment, and then immediately transferred to both an uncoated (for detached cells) and ibiTreated (for adhered cells) 8-well ibidi u-slide (ibidi cat #80821 and 80826) at 200 μl/well. Both slides were stored at 37° C. and 5% CO2 for either 24 hours (hrs) for viability assays, 3 hrs for ERK activity assays or 4 hours for caspase activation assays. Uncoated slides (detached) were nutated at 20 rpm during this time. […]
Viability, ERK Activity, and Caspase ActivityCell Counting Assays. Viability, ERK activity, and caspase activity assays were analyzed using live-cell fluorescent and phase-contrast microscopy, performed on a Nikon Ti microscope equipped with an environmental chamber held at 37° C. and 5% CO2 at 20× magnification. […] Live and dead cells (as identified by significant cellular ethidium signal) were counted using the Cell Counter ImageJ plugin. For ERK activity assays, live cells carrying ERK-nKTR-GFP and H2B-mCherry were imaged after 3 hours of experimental conditions and high/low ERK activity cells were counted with Cell Counter ImageJ plugin. […] Caspase positive and negative cells (as identified by significant cellular CellEvent signal) were counted using the Cell Counter ImageJ plugin.

MV3 cells = test: Detached/adhered viability assay, ethidium homodimer staining, MV3; format: cell-based, human; details: for cell death: 24 hours of WGA
Description: as §2
as §1, with “experiment. […]” for “experiment.”
Viability, ERK Activity, and Caspase ActivityCell Counting Assays. Viability, ERK activity, and caspase activity assays were analyzed using live-cell fluorescent and phase-contrast microscopy, performed on a Nikon Ti microscope equipped with an environmental chamber held at 37° C. and 5% CO2 at 20× magnification. […] Live and dead cells (as identified by significant cellular ethidium signal) were counted using the Cell Counter ImageJ plugin. For ERK activity assays, live cells carrying ERK-nKTR-GFP and H2B-mCherry were imaged after 3 hours of experimental conditions and high/low ERK activity cells were counted with Cell Counter ImageJ plugin. […]

For `O=C(Nc1ccccc1)Nc1ccnc(Cl)c1` [FCF, forchlorfenuron], which “anoikis resistance acquired by DYN2 (K44A) expression” value (MEF cells) is on record?
Its value is “reversed”.

And the caspase activation (MEF cells)?
The caspase activation was “returned to levels seen in matched non-blebbing control cells”.

And the “anoikis resistance (cell death adhered vs detached)” value (M498 cells; M498, 50 μM FCF, 24 hours)?
Its value is “greatly disrupted anoikis resistance”.

What about the “anoikis resistance (cell death adhered vs detached)” value (MV3 cells; MV3, 50 μM FCF, 24 hours) of the same molecule?
The value was “greatly disrupted anoikis resistance”.

Which “anoikis resistance acquired by DYN2 (K44A) expression” value (MEF cells) does the source give for wheat germ agglutinin [WGA] here?
Its value is “reversed”.

What about the caspase activation (MEF cells) of the same molecule?
Its caspase activation is “returned to levels seen in matched non-blebbing control cells”.

What about the cell death (M498 cells; adhered M498 cells) of the same molecule?
Its cell death is “die upon WGA treatment”.

And the cell death (M498 cells; detached M498 cells)?
Its cell death is “significantly more death”.

What about the cell death (MV3 cells; adhered MV3 cells) of the same molecule?
The cell death was “little to none”.

What about the cell death (MV3 cells; detached MV3 cells) of the same molecule?
The cell death was “high levels of cell death”.
